Data on 14 molecules can be found in publication PMC3943433 (Journal of medicinal chemistry, 2013).

Where two headings read alike, the source gives them in different places.

The target in series [1] is T1, SHV K234R β-lactamase (Klebsiella pneumoniae, UniProt P0AD64, K230R). Description: Far-UV circular dichroism and thermal denaturation in the presence of inhibitors. The settings on record: for ΔHVH: K234R 10 µM with 50 µM inhibitor, van't Hoff plot; for effect on secondary structure (far UV CD): K234R 10 µM, 50 µM inhibitor. On the technique in general: Circular dichroism is widely used to follow secondary structure.

Series [2] has as its target T2, SHV-1 β-lactamase (Klebsiella pneumoniae, UniProt P0AD64).
For series [3], the target named is T1, SHV K234R β-lactamase. Description: Ki by direct competition assay with nitrocefin. It counts as biochemical. The settings on record: for fold lower Ki for K234R relative to SHV-1: K234R vs SHV-1.
Series [4] concerns the target T2, SHV-1 β-lactamase. The class given is biochemical.
Series [5] deals with T1, SHV K234R β-lactamase. Nature of the series: Steady-state kinetics with β-lactam substrates. The settings on record: K234R relative to SHV-1, from kcat/Km (eq 3). It counts as biochemical.
The subject of series [6] is E. coli DH10B expressing blaSHV K234X (other 16 amino acid substitutions). Nature of the series: MIC by Mueller-Hinton agar dilution. The note with it: Escherichia coli, E. coli blaSHV K234X (other 16 substitutions); β-lactam alone. The class given is cell-based. In general terms: In agar dilution, organisms are placed on agar that contains the substance at set levels.
Series [7] deals with CC(=O)OCC1=C(C(=O)O)N2C(=O)[C@@H](NC(=O)Cc3cccs3)[C@H]2SC1. Nature of the series: Steady-state kinetics with β-lactam substrates. The note with it: other: SHV-1, substrate, 10 mM PBS pH 7.4, room temperature. The class given is biochemical, Klebsiella pneumoniae.
Series [8] relates to CCN1CCN(C(=O)N[C@@H](C(=O)N[C@@H]2C(=O)N3[C@@H]2SC(C)(C)[C@@H]3C(=O)O)c2ccccc2)C(=O)C1=O. Description: Steady-state kinetics with β-lactam substrates. The class given is biochemical, Klebsiella pneumoniae. The note with it: other: SHV-1, substrate, 10 mM PBS pH 7.4, room temperature.
Series [9] has as its system O=C(Cc1cccs1)N[C@@H]1C(=O)N2C(C(=O)O)=C(/C=C/c3ccc([N+](=O)[O-])cc3[N+](=O)[O-])CS[C@H]12. Description: Steady-state kinetics with β-lactam substrates. It counts as biochemical, Klebsiella pneumoniae. The note with it: other: SHV-1, substrate, 10 mM PBS pH 7.4, room temperature.
The test system of series [10] is E. coli DH10B expressing blaSHV K234R. The class given is cell-based. The note with it: inhibitor in the presence of 50 µg/mL ampicillin.
Series [11] concerns E. coli DH10B. It counts as cell-based. The note with it: inhibitor in the presence of 50 µg/mL ampicillin.
Series [12] concerns E. coli DH10B expressing blaSHV-1. Description: MIC by Mueller-Hinton agar dilution. It counts as cell-based. The settings on record: E. coli blaSHV-1; inhibitor in the presence of 50 µg/mL ampicillin.
Series [13] concerns E. coli DH10B expressing blaSHV K234A. The class given is cell-based. The settings on record: inhibitor in the presence of 50 µg/mL ampicillin.
[14] abbreviates: SHV-1 10 µM with 50 µM inhibitor, van't Hoff plot.

Consider `O=C(Cc1cccs1)NCB(O)O` [Achiral Cephalothin BATSI], for which the figures for the ΔHVH in [1] and in series [2] (setting [14]) were 100 kcal/mol and 160 kcal/mol, respectively. The “effect on secondary structure (far UV CD)” value (from here on “effect”) in series [1] was “affect the secondary structure”.

In the case of `N[C@@H](C(=O)N[C@@H](Cc1cccc(C(=O)O)c1)B(O)O)c1ccccc1` [Chiral Ampicillin BATSI], the ΔHVH in [1] is 119 kcal/mol; in [2] (setting [14]), 143 kcal/mol. In addition, the “increase of melting temperature” value in series [1] (K234R with inhibitor vs apo) was found to be 6.6 °C. For the same molecule, the “fold lower Ki for K234R relative to SHV-1” value in [3] was 23 fold.

As to `O=C(Cc1cccs1)N[C@@H](Cc1cccc(C(=O)O)c1)B(O)O` [Chiral Cephalothin BATSI], the “fold difference in Ki, achiral vs chiral cephalothin BATSI” value in series [3] (K234R) came to 5000 fold. In addition, the “fold lower Ki for K234R relative to SHV-1” value in [3] amounted to 38 fold. Besides, the “fold lower Ki than the achiral BATSI” value in series [4] is on record as 44 fold.

For the molecule `O=C(O)[C@H]1/C(=C/CO)O[C@@H]2CC(=O)N21` [Clavulanate, clavulanate], in series [1], the ΔHVH is 68 kcal/mol and the “effect” value is given as “affects the secondary structure of both enzymes”. Also, in [2], the “effect” value is reported as “affects the secondary structure of both enzymes”, the ΔHVH worked out at 113 kcal/mol and the ΔΔGu result is on record as “+0.28 kcal/mol”.

Take `O=C(Cc1cccs1)N[C@@H]1C(=O)N2C(C(=O)O)=C(/C=C/c3ccc([N+](=O)[O-])cc3[N+](=O)[O-])CS[C@H]12` [Nitrocefin, nitrocefin]: in [5], the ΔΔGcat entry is reported as “+0.70 kcal/mol”.

Regarding `CC1(C)[C@H](C(=O)O)N2C(=O)C[C@H]2S1(=O)=O` [Sulbactam, sulbactam], the “effect” value in [1] is “affect the secondary structure”. Further, in [2], the “effect” value is given as “not SHV-1”, the ΔHVH is on record as 183 kcal/mol and the ΔΔGu entry is recorded as “+0.07 kcal/mol”.

As to `C[C@]1(Cn2ccnn2)[C@H](C(=O)O)N2C(=O)C[C@H]2S1(=O)=O` [Tazobactam, tazobactam], the ΔHVH in series [1] is 114 kcal/mol; in [2] (setting [14]), 149 kcal/mol. Moreover, the “effect” value is “affect the secondary structure” in series [1] and “not SHV-1” in series [2] (SHV-1 10 µM, 50 µM inhibitor).

Turning to `CC1(C)S[C@@H]2[C@H](NC(=O)[C@H](N)c3ccccc3)C(=O)N2[C@H]1C(=O)O` [amp, ampicillin], the MIC – broadly, the least concentration at which growth counts as inhibited – in series [6] is at most 4 µg/mL.

`CCN1CCN(C(=O)N[C@@H](C(=O)N[C@@H]2C(=O)N3[C@@H]2SC(C)(C)[C@@H]3C(=O)O)c2ccccc2)C(=O)C1=O` [pip, piperacillin] had an MIC in [6] of at most 8 µg/mL. The ΔΔGcat result in series [5] is recorded as “+0.33 kcal/mol”.

For the molecule `CC(=O)OCC1=C(C(=O)O)N2C(=O)[C@@H](NC(=O)Cc3cccs3)[C@H]2SC1` [thin, cephalothin], the ΔΔGcat result in series [5] is on record as “+1.00 kcal/mol”.

In the case of “SHV-1 β-lactamase (Klebsiella pneumoniae)”, the figures for the Km in series [7], in [8] and in series [9] were 48.9 ± 11.2 µM, 74.6 ± 11.7 µM and 24.7 ± 5 µM, respectively. For the same molecule, the kcat (usually the maximal rate divided by the concentration of active sites) was 42.6 ± 3.4 s⁻¹ in series [7], 1180 ± 65 s⁻¹ in series [8] and 348 ± 21.5 s⁻¹ in series [9]. In addition, the kcat/Km (in general, the second-order rate constant that governs catalysis at low substrate concentration) in series [7] is 870000 ± 300000 M⁻¹ s⁻¹; in [8], 1.58e+07 ± 600000 M⁻¹ s⁻¹; in [9], 1.41e+07 ± 220000 M⁻¹ s⁻¹.

As for ampicillin/clavulanate [amp/ clav], the MIC in series [10] was 16 µg/mL; in [11] it was under 0.06 µg/mL; in series [12] it was 4 µg/mL; in [13] it was under 0.06 µg/mL.

On to ampicillin/sulbactam [amp/ sul], for which the MIC is 64 µg/mL in series [10], under 0.06 µg/mL in series [11], 512 µg/mL in series [12] and under 0.06 µg/mL in series [13].

Take ampicillin/tazobactam [amp/ tazo]: the MIC in series [10] was 16 µg/mL; in [11], under 0.06 µg/mL; in series [12] it was 128 µg/mL; in series [13] it was under 0.06 µg/mL.
